Assay [1] deals with constitutive proteasome β5c unit (Homo sapiens, UniProt P20618+P28074). The assay is described as follows: Caliper-based proteasome enzymatic activity assay, β5c. The note with it: human recombinant constitutive proteasome 0.3 nM, FAM-peptide substrate 1 μM, 3 h at rt; read-out: β5c subunit IC50. Format: biochemical. The method, then:
(§1) A Caliper-based proteasome assay (Caliper Life Sciences, Hopkinton, Mass.) was used to measure inhibition of the immunoproteasome LMP7/B5i subunit, the immunoproteasome LPM2/β1i subunit, and the constitutive proteasome β5c unit for a compound of Formula (I). For LMP7 and β5c, serial dilutions of test compounds were incubated with either human recombinant immunoprotcasome or constitutive proteasome (0.3 nM enzyme) and a carboxyfluorescein (FAM)-labeled peptide substrate FAM-TYETFKSIMKKSPF-NH2 (1 μM) at it for 3 h. The reaction was then terminated with a buffer containing the known proteasome inhibitor carfilzomib at a concentration of 5 uM. For LMP2, serial dilutions of test compounds were incubated with human recombinant immunoproteasome proteasome (0.3 nM enzyme) and a carboxyfluorescein (FAM)-labeled peptide substrate FAM-[…]-NH2 (1 μM) at rt for 2 h. The reaction was then terminated with a buffer containing the known proteasome inhibitor ixazomib at a concentration of 6.7 uM. The reaction buffer was 20 mM Hepes pH 7.4, 0.01% bovine serum albumin, 0.015% SDS, 0.5 mM EDTA, 1%0/DMSO. The peptide cleavage reaction product was quantified on a Caliper LabChip 3000. Percent inhibition was calculated for each compound dilution and the concentration that produced 50% inhibition was calculated. This value is presented as the IC50.

In assay [2] the target is immunoproteasome LMP7/B5i subunit (Homo sapiens, UniProt P20618+P28062). Briefly: Caliper-based proteasome enzymatic activity assay, LMP7. It counts as biochemical. The note with it: human recombinant immunoproteasome 0.3 nM, FAM-peptide substrate 1 μM, 3 h at rt. The method, then:
as §1

Some results are limits rather than exact numbers.

`Cc1ccc(C[C@H](NC(=O)OC[C@H]2[C@H]3C[C@H]3CN2C(=O)C(C#N)=CC2(C)CCOCC2)B(O)O)cc1` [Example 92, ((R)-1-(((((1S,2R,5R)-3-(2-cyano-3-(4-methyltetrahydro-2H-pyran-4-yl)acryloyl)-3-azabicyclo[3.1.]hexan-2-yl)methoxy)carbonyl)amino)-2-(p-tolyl)ethyl)boronic acid]: the IC50 in assay [1] came to 2240 nM; in assay [2], 1.9 nM.
With `C=CC(=O)N1C[C@@H](F)C[C@@H]1COC(=O)N[C@@H](Cc1ccccc1)B(O)O` [Example 100, ((R)-1-(((((2R,4S)-1-acryloyl-4-fluoropyrrolidin-2-yl)methoxy)carbonyl)amino)-2-phenylethyl)boronic acid], the figures for the IC50 in assay [1] and in assay [2] were 530 nM and 21 nM, respectively.
With `CN1CCN(C(C)(C)C=C(C#N)C(=O)N2CCC[C@@H]2COC(=O)N[C@@H](Cc2coc3ccccc23)B(O)O)CC1` [Example 55, ((R)-2-(benzofuran-3-yl)-1-(((((R)-1-(2-cyano-4-methyl-4-(4-methylpiperazin-1-yl)pent-2-enoyl)pyrrolidin-2-yl)methoxy)carbonyl)amino)ethyl)boronic acid], the IC50 in assay [1] came out at 225 nM; in assay [2], 2.5 nM.
Regarding `Cc1ccc(C[C@H](NC(=O)OC[C@H]2COCCN2C(=O)C(C#N)=CC(C)(C)C)B(O)O)cc1` [Example 73, ((R)-1-(((((R)-4-(2-cyano-4,4-dimethylpent-2-enoyl)morpholin-3-yl)methoxy)carbonyl)amino)-2-(p-tolyl)ethyl)boronic acid], the IC50 in assay [1] stood at 288 nM; in assay [2] it was 2.7 nM.
For the compound `CC(C)(C=C(C#N)C(=O)N1C[C@@H]2C[C@@H]2[C@@H]1COC(=O)N[C@@H](Cc1ccc(F)cc1)B(O)O)N1CCC(F)(F)C1` [Example 108], the half-inhibitory concentration (IC50) came out at 830 nM in assay [1] and 0.9 nM in assay [2].
For the compound `CC(C)(C=C(C#N)C(=O)N1CCCCC[C@H]1COC(=O)N[C@@H](Cc1coc2ccccc12)B(O)O)N1CCOCC1` [Example 64, ((R)-2-(benzofuran-3-yl)-1-(((((S)-1-(2-cyano-4-methyl-4-morpholinopent-2-enoyl)azepan-2-yl)methoxy)carbonyl)amino)ethyl)boronic acid], the half-inhibitory concentration (IC50) was determined as 645 nM in assay [1] and 3.3 nM in assay [2].
On the same counts, the results for `CC(C)(C)C[C@H](NC(=O)OC[C@@]1(C)CCCN1C(=O)C(C#N)=CC(C)(C)N1CCC(F)(F)C1)B(O)O` [Example 118, ((R)-1-(((((R)-1-(2-cyano-4-(3,3-difluoropyrrolidin-1-yl)-4-methylpent-2-enoyl)-2-methylpyrrolidin-2-yl)methoxy)carbonyl)amino)-3,3-dimethylbutyl)boronic acid] are 570 nM and 1.5 nM.
For the compound `COc1ccc(C[C@H](NC(=O)OC[C@H]2CCCCN2C(=O)C(C#N)=CC(C)(C)N2CCC(F)(F)C2)B(O)O)cc1` [Example 78, ((R)-1-(((((R)-1-(2-cyano-4-(3,3-difluoropyrrolidin-1-yl)-4-methylpent-2-enoyl)piperidin-2-yl)methoxy)carbonyl)amino)-2-(4-methoxyphenyl)ethyl)boronic acid], the IC50 in assay [1] was 1270 nM; in assay [2], 4.8 nM.
For the compound `Cc1ccc(C[C@H](NC(=O)OC[C@@H]2CCCCCN2C(=O)C(C#N)=CC(C)(C)N2CCC(F)(F)C2)B(O)O)cc1` [Example 81, ((R)-1-(((((S)-1-(2-cyano-4-(3,3-difluoropyrrolidin-1-yl)-4-methylpent-2-enoyl)azepan-2-yl)methoxy)carbonyl)amino)-2-(p-tolyl)ethyl)boronic acid], the half-maximal inhibitory concentration (IC50) stood at 3840 nM in assay [1] and 4.4 nM in assay [2].
On to `Cc1ccc(C[C@H](NC(=O)OC[C@H]2[C@H]3C[C@H]3CN2C(=O)C(C#N)=CC(C)(C)N2CCOCC2)B(O)O)cc1` [Example 75], for which the figures for the IC50 in assay [1] and in assay [2] were 1020 nM and 1.1 nM, respectively.
On the same counts, the results for `CC(C)(C=C(C#N)C(=O)N1CCC[C@@H]1COC(=O)N[C@@H](Cc1coc2ccccc12)B(O)O)N1CCC(F)(F)C1` [Example 42, ((R)-2-(benzofuran-3-yl)-1-(((((R)-1-(2-cyano-4-(3,3-difluoropyrrolidin-1-yl)-4-methylpent-2-enoyl)pyrrolidin-2-yl)methoxy)carbonyl)amino)ethyl)boronic acid] are 141 nM and 0.5 nM.
In the case of `CC(C)(C=C(C#N)C(=O)N1C[C@@H]2C[C@@H]2[C@@H]1COC(=O)N[C@@H](Cc1coc2ccccc12)B(O)O)N1CCC(F)(F)C1` [Example 54, ((R)-2-(benzofuran-3-yl)-1-(((((1S,2R,5R)-3-(2-cyano-4-(3,3-difluoropyrrolidin-1-yl)-4-methylpent-2-enoyl)-3-azabicyclo[3.1.0]hexan-2-yl)methoxy)carbonyl)amino)ethyl)boronic acid], the IC50 was 192 nM in assay [1] and 1.6 nM in assay [2].
Consider `CN(C)C/C=C/C(=O)N1CCC[C@@H]1COC(=O)N[C@@H](Cc1coc2ccccc12)B(O)O` [Example 49, ((R)-2-(benzofuran-3-yl)-1-(((((R)-1-((E)-4-(dimethylamino)but-2-enoyl)pyrrolidin-2-yl)methoxy)carbonyl)amino)ethyl)boronic acid], for which the half-inhibitory concentration (IC50) is 149 nM in assay [1] and 1.3 nM in assay [2].
Turning to `CC(=O)N1CCN(C(C)(C)C=C(C#N)C(=O)N2CCC[C@@H]2COC(=O)N[C@@H](Cc2coc3ccccc23)B(O)O)CC1` [Example 53, ((R)-1-(((((R)-1-(4-(4-acetylpiperazin-1-yl)-2-cyano-4-methylpent-2-enoyl)pyrrolidin-2-yl)methoxy)carbonyl)amino)-2-(benzofuran-3-yl)ethyl)boronic acid], the IC50 in assay [1] was 205 nM; in assay [2], 1.8 nM.
In the case of `CN(C)C/C=C/C(=O)N1C[C@@H]2C[C@@H]2[C@@H]1COC(=O)N[C@@H](Cc1coc2ccccc12)B(O)O` [Example 87, ((R)-2-(benzofuran-3-yl)-1-(((((1S,2R,5R)-3-((E)-4-(dimethylamino)but-2-enoyl)-3-azabicyclo[3.1.0]hexan-2-yl)methoxy)carbonyl)amino)ethyl)boronic acid], the IC50 in assay [1] was 1010 nM; in assay [2] it was 13 nM.
In the case of `C=CC(=O)N1C[C@H](F)C[C@@H]1COC(=O)N[C@@H](Cc1ccccc1)B(O)O` [Example 89, ((R)-1-(((((2R,4R)-1-acryloyl-4-fluoropyrrolidin-2-yl)methoxy)carbonyl)amino)-2-phenylethyl)boronic acid], the half-inhibitory concentration (IC50) in assay [1] stood at 1850 nM; in assay [2] it was 73 nM.
As to `CN(CC(F)F)C(C)(C)C=C(C#N)C(=O)N1CCCC[C@@H]1COC(=O)N[C@@H](Cc1ccccc1)B(O)O` [Example 80, ((R)-1-(((((R)-1-(2-cyano-4-((2,2-difluoroethyl)(methyl)amino)-4-methylpent-2-enoyl)piperidin-2-yl)methoxy)carbonyl)amino)-2-phenylethyl)boronic acid], the 50% inhibitory concentration (IC50) in assay [1] was found to be 1510 nM; in assay [2], 2 nM.
As for `CC(C)(C=C(C#N)C(=O)N1CCC[C@]1(C)COC(=O)N[C@@H](Cc1coc2ccccc12)B(O)O)N1CCC(F)(F)C1` [Example 117, ((R)-2-(benzofuran-3-yl)-1-(((((R)-1-(2-cyano-4-(3,3-difluoropyrrolidin-1-yl)-4-methylpent-2-enoyl)-2-methylpyrrolidin-2-yl)methoxy)carbonyl)amino)ethyl)boronic acid], the results for the half-inhibitory concentration (IC50) in assay [1] and in assay [2] were 640 nM and 0.8 nM, respectively.
On the same counts, the results for `C=CC(=O)N1C[C@@H]2C[C@@H]2[C@@H]1COC(=O)N[C@@H](Cc1ccc(C)cc1)B(O)O` [Example 95, ((R)-1-(((((1S,2R,5R)-3-acryloyl-3-azabicyclo[3.1.0]hexan-2-yl)methoxy)carbonyl)amino)-2-(p-tolyl)ethyl)boronic acid] are 3390 nM and 37 nM.
In the case of `Cc1ccc(C[C@H](NC(=O)OC[C@H]2[C@H]3C[C@H]3CN2C(=O)C(C#N)=CC(C)(C)N2CCC(F)(F)C2)B(O)O)cc1` [Example 116, ((R)-1-(((((1S,2R,5R)-3-(2-cyano-4-(3,3-difluoropyrrolidin-1-yl)-4-methylpent-2-enoyl)-3-azabicyclo[3.1.0]hexan-2-yl)methoxy)carbonyl)amino)-2-(p-tolyl)ethyl)boronic acid], the values for the 50% inhibitory concentration (IC50) in assay [1] and in assay [2] were greater than 5000 nM and 62 nM, respectively.
`CC(C)(C=C(C#N)C(=O)N1CCCC[C@@H]1COC(=O)N[C@@H](Cc1coc2ccccc12)B(O)O)N1CCCC(F)(F)C1` [Example 62, ((R)-2-(benzofuran-3-yl)-1-(((((R)-1-(2-cyano-4-(3,3-difluoropiperidin-1-yl)-4-methylpent-2-enoyl)piperidin-2-yl)methoxy)carbonyl)amino)ethyl)boronic acid]: the values for the IC50 in assay [1] and in assay [2] were 205 nM and 1.6 nM, respectively.
With `C=C(F)C(=O)N1CCC[C@]1(C)COC(=O)N[C@@H](Cc1ccc(F)cc1)B(O)O` [Example 121, ((R)-1-(((((R)-1-(2-fluoroacryloyl)-2-methylpyrrolidin-2-yl)methoxy)carbonyl)amino)-2-(4-fluorophenyl)ethyl)boronic acid], the IC50 in assay [1] was 1750 nM; in assay [2], 1.9 nM.

The term IC50 denotes the concentration that inhibits the measured activity by half.

(Values after patent US11154563B2, “Immunoproteasome inhibitors” (Principia Biopharma Inc., priority 2017, dated 2021).)
